Values of other authors, collected in patent US20190231704A1 (Yale University, priority 2016, published 2019).

Molecular target: T1, ALK4 (Homo sapiens, UniProt P36896)
T1 sequence (P36896 24-505): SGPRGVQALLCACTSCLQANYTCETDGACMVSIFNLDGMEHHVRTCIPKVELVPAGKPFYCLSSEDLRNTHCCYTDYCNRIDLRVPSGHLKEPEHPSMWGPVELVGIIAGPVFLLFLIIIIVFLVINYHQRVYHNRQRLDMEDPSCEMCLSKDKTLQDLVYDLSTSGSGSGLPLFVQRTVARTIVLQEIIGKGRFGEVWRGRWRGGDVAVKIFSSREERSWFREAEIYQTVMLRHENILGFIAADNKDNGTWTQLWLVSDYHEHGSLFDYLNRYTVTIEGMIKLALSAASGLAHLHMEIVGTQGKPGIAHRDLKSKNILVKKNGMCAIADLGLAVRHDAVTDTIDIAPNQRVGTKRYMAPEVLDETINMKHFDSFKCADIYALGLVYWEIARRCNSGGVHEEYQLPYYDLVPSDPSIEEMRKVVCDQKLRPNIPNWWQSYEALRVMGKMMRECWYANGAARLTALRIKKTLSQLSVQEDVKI

For `Cc1cccc(-c2[nH]c(C(C)(C)C)nc2-c2ccc3c(c2)OCO3)n1` [SB-505124], the IC50 is given as 129 nM.
